# Numbers after ± are expanded uncertainties.
# Experiments:
# [1] = 101.33 kPa, Liquid, Pycnometric method
# [2] = excess molar enthalpy (molar enthalpy of mixing); xn = mol fraction of the nth substance listed; settings: 297.15 K, 101 kPa, Liquid, Constant Pressure Calorimeter
smiles,measurement,setting,value
c1ccncc1 [pyridine],mass density,[1]; 293.95 K,981 ± 2 kg/m3
same,mass density,[1]; 295.35 K,979.2 ± 2 kg/m3
same,mass density,[1]; 297.25 K,977.9 ± 2 kg/m3
same,mass density,[1]; 299.15 K,975.3 ± 2 kg/m3
same,mass density,[1]; 301.25 K,972.8 ± 2 kg/m3
same,mass density,[1]; 303.25 K,971.7 ± 2 kg/m3
same,mass density,[1]; 305.15 K,969.9 ± 2 kg/m3
same,mass density,[1]; 307.25 K,967.9 ± 2 kg/m3
same,mass density,[1]; 309.25 K,965.2 ± 1.9 kg/m3
same,mass density,[1]; 311.35 K,963.6 ± 1.9 kg/m3
same,mass density,[1]; 313.15 K,961.6 ± 1.9 kg/m3
same,mass density,[1]; 315.35 K,959.8 ± 1.9 kg/m3
same,mass density,[1]; 317.55 K,956.3 ± 1.9 kg/m3
same,mass density,[1]; 319.55 K,953.9 ± 1.9 kg/m3
same,mass density,[1]; 321.15 K,953.1 ± 1.9 kg/m3
C1CCNCC1 [piperidine],mass density,[1]; 293.65 K,873.5 ± 1.8 kg/m3
same,mass density,[1]; 296.05 K,867.1 ± 1.8 kg/m3
same,mass density,[1]; 298.15 K,864.6 ± 1.8 kg/m3
same,mass density,[1]; 300.05 K,856.3 ± 1.7 kg/m3
same,mass density,[1]; 302.65 K,852.4 ± 1.7 kg/m3
same,mass density,[1]; 304.55 K,852.6 ± 1.7 kg/m3
same,mass density,[1]; 306.45 K,852.5 ± 1.7 kg/m3
same,mass density,[1]; 308.25 K,850.6 ± 1.7 kg/m3
same,mass density,[1]; 310.35 K,846.3 ± 1.7 kg/m3
same,mass density,[1]; 313.75 K,842.2 ± 1.7 kg/m3
same,mass density,[1]; 315.15 K,840.8 ± 1.7 kg/m3
same,mass density,[1]; 317.35 K,837.7 ± 1.7 kg/m3
same,mass density,[1]; 319.15 K,835.3 ± 1.7 kg/m3
same,mass density,[1]; 321.15 K,833.5 ± 1.7 kg/m3
same,mass density,[1]; 323.05 K,831.4 ± 1.7 kg/m3
C1CCNCC1 [piperidine] + O,excess molar enthalpy,[2]; x2 = 0,0 ± 0.000239 kcal/mol
same,excess molar enthalpy,[2]; x2 = 0.05,-0.0853 ± 0.00359 kcal/mol
same,excess molar enthalpy,[2]; x2 = 0.09,-0.123 ± 0.00502 kcal/mol
same,excess molar enthalpy,[2]; x2 = 0.15,-0.18 ± 0.00741 kcal/mol
same,excess molar enthalpy,[2]; x2 = 0.21,-0.268 ± 0.011 kcal/mol
same,excess molar enthalpy,[2]; x2 = 0.25,-0.35 ± 0.0143 kcal/mol
same,excess molar enthalpy,[2]; x2 = 0.3,-0.4 ± 0.0163 kcal/mol
same,excess molar enthalpy,[2]; x2 = 0.35,-0.437 ± 0.0177 kcal/mol
same,excess molar enthalpy,[2]; x2 = 0.4,-0.461 ± 0.0189 kcal/mol
same,excess molar enthalpy,[2]; x2 = 0.45,-0.475 ± 0.0194 kcal/mol
same,excess molar enthalpy,[2]; x2 = 0.5,-0.511 ± 0.0208 kcal/mol
same,excess molar enthalpy,[2]; x2 = 0.55,-0.532 ± 0.0215 kcal/mol
same,excess molar enthalpy,[2]; x2 = 0.6,-0.53 ± 0.0215 kcal/mol
same,excess molar enthalpy,[2]; x2 = 0.65,-0.522 ± 0.0213 kcal/mol
same,excess molar enthalpy,[2]; x2 = 0.7,-0.495 ± 0.0201 kcal/mol
same,excess molar enthalpy,[2]; x2 = 0.75,-0.469 ± 0.0194 kcal/mol
same,excess molar enthalpy,[2]; x2 = 0.93,-0.234 ± 0.0134 kcal/mol
same,excess molar enthalpy,[2]; x2 = 0.96,-0.159 ± 0.0131 kcal/mol
same,excess molar enthalpy,[2]; x2 = 0.99,-0.0557 ± 0.0153 kcal/mol
O [water] + c1ccncc1,excess molar enthalpy,[2]; x1 = 1,0 ± 0.000239 kcal/mol
c1ccncc1 [pyridine] + O,excess molar enthalpy,[2]; x2 = 0,0 ± 0.000239 kcal/mol
same,excess molar enthalpy,[2]; x2 = 0.05,-0.028 ± 0.0012 kcal/mol
same,excess molar enthalpy,[2]; x2 = 0.1,-0.061 ± 0.00263 kcal/mol
same,excess molar enthalpy,[2]; x2 = 0.15,-0.11 ± 0.00454 kcal/mol
same,excess molar enthalpy,[2]; x2 = 0.2,-0.156 ± 0.00645 kcal/mol
same,excess molar enthalpy,[2]; x2 = 0.25,-0.21 ± 0.0086 kcal/mol
same,excess molar enthalpy,[2]; x2 = 0.3,-0.247 ± 0.01 kcal/mol
same,excess molar enthalpy,[2]; x2 = 0.35,-0.284 ± 0.0117 kcal/mol
same,excess molar enthalpy,[2]; x2 = 0.4,-0.33 ± 0.0136 kcal/mol
same,excess molar enthalpy,[2]; x2 = 0.45,-0.374 ± 0.0153 kcal/mol
same,excess molar enthalpy,[2]; x2 = 0.5,-0.389 ± 0.0158 kcal/mol
same,excess molar enthalpy,[2]; x2 = 0.55,-0.388 ± 0.0158 kcal/mol
same,excess molar enthalpy,[2]; x2 = 0.6,-0.378 ± 0.0153 kcal/mol
same,excess molar enthalpy,[2]; x2 = 0.65,-0.366 ± 0.0148 kcal/mol
same,excess molar enthalpy,[2]; x2 = 0.7,-0.332 ± 0.0136 kcal/mol
same,excess molar enthalpy,[2]; x2 = 0.73,-0.318 ± 0.0129 kcal/mol
same,excess molar enthalpy,[2]; x2 = 0.89,-0.154 ± 0.00741 kcal/mol
same,excess molar enthalpy,[2]; x2 = 0.92,-0.121 ± 0.00669 kcal/mol
same,excess molar enthalpy,[2]; x2 = 0.95,-0.0804 ± 0.00621 kcal/mol
same,excess molar enthalpy,[2]; x2 = 0.98,-0.0364 ± 0.00645 kcal/mol
O [water] + C1CCNCC1,excess molar enthalpy,[2]; x1 = 1,0 ± 0.000239 kcal/mol
